According to article PMC6698794, “Catalytic Knockdown of miR-21 by Artificial Ribonuclease: Biological Performance in Tumor Model” (Frontiers in Pharmacology, 2019):
Values joined by “and” are separate entries in the source; they are usually repeats but may differ in a detail not shown here. Equal values may be shown once.

Legend:
B16 cells = assay: In vitro invasiveness assay (xCELLigence, Matrigel-coated CIM-Plates); format: cell-based, mouse; conditions: 1 µM with Lipofectamine
Protocol: B16 cells were pre-seeded (2 × 10^5 per well of 24-well plates) in DMEM/10% FBS a day before transfection. Medium was replaced with serum-free DMEM, prior to incubation for 4 h with h-ODN, 2′-OMe, Inh (hsa-miR-21 5 p inhibitor, Ambion, USA), miR-21-miRNase, or luc-POC, each (0.1 or 1 µM) pre-complexed with Lipofectamine (Thermo Fisher Scientific, USA) in Opti-MEM medium (Thermo Fisher Scientific, USA) according to manufacturer’s instructions, then cells were cultivated in fresh culture standard medium for 24–72 h.
Real-time cell analysis (xCELLigence, ACEABiosciences, USA) used CIM-Plates held at 37°C under an atmosphere of 5% CO2. Top chamber wells were coated with Matrigel (20 µl per well, diluted 1:40 with cold serum-free DMEM) and allowed to polymerize (4 h at 37°C under 5% CO2) prior to cell seeding. Bottom chamber wells were filled with DMEM/10% FBS (160 µl each), prior to assembly of the chambers, when serum-free DMEM was added to the top wells (30 µl each) and equilibrated (1 h at 37°C under 5% CO2). At 4 h after transfection, B16 cells (4 × 10^4) were seeded into each top chamber well in serum-free DMEM and pre-incubated for 30 min at room temperature before monitoring (xCELLigence set to collect impedance data, reported as cell index at least once every 30 min).
Figure 2 Biological effect of the miR-21-specific miRNase. (A) Apoptotic profile of B16 melanoma cells after transfection with miR-21-miRNase and control luc-POC. Cytofluorimetric analysis of cells after staining with Annexin V-FITC/PI 48 h after transfection with miRNase or luc-POC (1 µM) in complex with Lipofectamine2000. Q1—population of living cells; Q2—Annexin V-FITC+/PI-, early apoptosis; Q3—Annexin V-FITC+/PI+, late apoptosis; Q4—Annexin V-FITC-/PI+, necrosis. (B) Average percentage of apoptotic (early and late apoptosis) and necrotic B16 cell population. Data represent mean ± s.e. of four independent experiments.(C, D) Invasion activity of B16 cells after incubation with Lipofectamine (LF) alone or treated with either hairpin antisense oligonucleotide (h-ODN), hairpin 2′-OMe oligonucleotide (2′-OMe), commercial miR-21 inhibitor (Inh), miR-21-miRNase, and control conjugate (luc-POC) in the concentration of 1 µM. Migration of cells was recorded in real time using the xCELLigence cell analysis system. Control—B16 cells without treatment. Data represent mean ± s.d. of four independent experiments.

RLS40 lymphosarcoma [1] = assay: Hepatic index of mice implanted with treated RLS40 cells; format: in vivo; conditions: cells treated with 1 µM; (liver weight/mouse weight) × 100%; 5.0% for healthy CBA mice; Mean ± SE
Protocol: (§1) RLS40 ascites were taken from CBA mice intraperitoneally injected with tumor cells (2 × 10^6 in 0.2 ml buffered saline) into their abdominal cavities. RLS40 cells, isolated from ascites fluid by filtration through LSM were divided into seven portions: 1) untreated cells; 2) the cells incubated with Lipofectamine; the cells transfected with 1 µM of 3) h-ODN, 4) 2′-OMe, 5) Inh, 6) miR-21-miRNase, or 7) luc-POC each. After 4 h of transfection, cell suspensions (0.1 ml, 2 × 10^6 cells) were intramuscularly inoculated into the right lower limb of CBA mice for solid tumor development. As soon as tumors began to be palpable, the tumor volumes were measured every 2–3 days using calipers. Tumor volumes were calculated as V = (π/6 × length × width × height). Hepatic index was estimated as (liver weight/mouse weight) × 100% and as 5.0% for healthy CBA mice. Tumor doubling time (DT) was estimated as DT = (t − t0) × ln 2/(ln V − ln V0), where (t − t0) indicates the length of time between two measurements of tumor size and V0 and V denote the tumor volume at two points of the measurement ([Ozono et al., 2004]).
Supplementary Table 2. Hepatic indexes of mice implanted with RLS40 treated with antisense
oligonucleotides, control luc-POC and miR-21-miRNase
Type of treatment Hepatic index, %* p-value (vs control)
* – Mean ± SE; s.i. – statistically insignificant
Hepatic index was estimated as (liver weight/mouse weight) × 100% and as 5.0% for healthy CBA
The MDR status of RLS40 may add to the burden on the liver, when this type of tumor
metastasizes into the liver (Sen’kova et al., 2012). Ex vivo treatment of RLS40 cells by
oligonucleotides and miRNase avoids the toxic effect of antisense oligonucleotides, their conjugates
and transfection reagents directly on the tumor-bearing animal. This may allow consideration of
whether the decrease of migration activity of tumor cells translated into reduced metastatic burden of
RLS40 on the liver. Treatment of the cells seeding the tumor may not reduce migration and […]

RLS40 lymphosarcoma [2] = assay: Tumor transplantation assay: RLS40 cells treated ex vivo, then inoculated intramuscularly; format: in vivo, CBA mice; conditions: for Tumor doubling time, DT: DT = (t − t0) × ln 2/(ln V − ln V0)
Protocol: as §1
Figure 3 Antitumor effect of miR-21-specific miRNase. (A) Retardation of RLS40 growth in vivo after treatment of RLS40 cells with antisense oligonucleotides, control conjugate (luc-POC), or miR-21-miRNase. (B) Tumor volume on day 19 after RLS40 transplantation. Mice were injected with RLS40 cells either without any treatment (w/t) or treated with Lipofectamine (LF), commercial miR-21 inhibitor at concentration 0.1 µM (Inh 0.1, recommended) and 1 µM (Inh 1, in accordance to concentration of miRNase used in the study), control conjugate (luc-POC, 1 µM), hairpin 2′OMe oligonucleotide (2′-OMe, 1 µM), hairpin antisense oligonucleotide (h-ODN, 1 µM) or miR-21-specific miRNase (miR-21-miRNase, 1 µM). Data were statistically analyzed using two-way ANOVA with post hoc Tukey test. Data are presented as mean ± s.e. p-value indicates a statistically reliable difference. (C) Doubling time of RLS40 tumors after treatment with oligonucleotides and conjugates. TEXT PRINTED IN THE PICTURE: (C) untreated: DT, days: 2,45±0,49 | (C) LF: DT, days: 2,48±0,35 | (C) Inh 0.1: DT, days: 2,56±0,59 | (C) Inh 1: DT, days: 13,90±0,46 | (C) 2’-OMe: DT, days: 3,17±1,45 | (C) luc-POC: DT, days: 2,40±0,45 | (C) h-ODN: DT, days: 3,00±1,83 | (C) miR-21-miRNase: DT, days: 12,77±0,34

[3] = cells treated with 1 µM before transplantation

| Substance | Inhibition of invasion of B16 cells relative to luc-POC (B16 cells; time point 40 h) | Inhibition of invasion of B16 cells relative to control (B16 cells; time point 40 h, four independent experiments) | Hepatic index (RLS40 lymphosarcoma [1]) [%] | Increase of tumor doubling time over untreated control (w/t) (RLS40 lymphosarcoma [2]; [3]) [fold] | Tumor doubling time, DT (RLS40 lymphosarcoma [2]; [3]) | Migration rate of transfected B16 cells (in words) (B16 cells; compared with Lipofectamine alone) | Retardation of tumor growth, mean tumor volume times less than in the control group (RLS40 lymphosarcoma [2]; cells transfected once with 1 µM for 4 h, 2 × 10^6 cells i.m. into CBA mice, day 19) | Tumor doubling time against w/t (in words) (RLS40 lymphosarcoma [2]; [3]) |
| --- | --- | --- | --- | --- | --- | --- | --- | --- |
| acetyl-[(LeuArg)2Gly]2-aminohexyl-AGTCTGATAAGCTACAAGTCAGCGAAAGCTGACTTG [miR-21-miRNase, peptide acetyl-[(LeuArg)2Gly]2 conjugated through aminohexyl linker to 5′-end of miR-21-targeted hairpin oligodeoxyribonucleotide] | about 70% | about 70% | 5.1±0.16 | > 5 | 12,77±0,34 days and 12.77 days |  |  |  |
| h-ODN: miR-21-targeted hairpin deoxyribooligonucleotide AGTCTGATAAGCTACAAGTCAGCGAAAGCTGACTTG, unconjugated with the peptide (DNA, backbone and methylation of C not given here; hairpin at 3' end, unconjugated) |  |  | 5.23±0.17 |  | 3,00±1,83 days | almost the same rate as cells incubated with Lipofectamine | about 2 fold | did not show a statistically significant difference |
